Measurements published in US20220411380A1, “ACID ADDITION SALT OF RORy REGULATOR” (JIANGSU HENGRUI MEDICINE CO., LTD., priority 2019, published 2022).

Key:
Assay type in all cases: physicochemical
[1] = DVS (dynamic vapor sorption) characterization
Description: DVS refers to dynamic vapor sorption: The measurement was conducted with a Surface Measurement Systems advantage 2 at 25° C., starting from 50% humidity in humidity range of 0%-95% with a step size of 10%. The judging criterion was that the mass change of each gradient dM/dT is less than 0.002 and TMAX is less than 360 min in two circles.

[2] = Long-term/accelerated stability study of crystalline form α of hydrochloride and crystalline form I of hydrobromide
Description: The crystalline form α of the hydrochloride of the compound of formula II was let stand in conditions of 25° C./60% RH and 40° C./75% RH to examine its stability.
The crystalline form I of the hydrobromide of the compound of formula II was let stand in conditions of 25° C./60% RH and 40° C./75% RH to examine its stability.

[3] = Influencing factor study of crystalline form α of hydrochloride and crystalline form I of hydrobromide
Description: Sample of the crystalline form α of the hydrochloride and the crystalline form I of the hydrobromide of the compound of formula II were let stand open to examine the stability of the samples in conditions of illumination (4500 Lux), high temperature (40° C. and 60° C.) and high humidity (RH 75% and RH 92.5%) in a period of 30 days.

Cl.NC(=O)C[C@H](c1ccc(S(=O)(=O)CC2CC2)cc1)c1nc2cc(-c3ccccc3OC(F)F)c(Cl)cc2[nH]1 [Crystalline form α of hydrochloride of compound of formula I]
Crystalline form before and after DVS (XRPD comparison) ([1]; 0-95% humidity change): crystalline form did not change during DVS | DVS weight change ([1]; 25° C., 20.0% RH to 80.0% RH): 0.549% | Hygroscopicity ([1]; DVS, 25° C., 20.0% RH to 80.0% RH): slightly hygroscopic | Vapor sorption ([1]; accelerated test condition, 70% humidity): about 0.574% | Vapor sorption ([1]; extreme condition, 90% humidity): about 1.040% | Vapor sorption ([1]; normal storage condition, 60% humidity/25° C.): about 0.463% | Chiral purity (%) ([2]; 25° C., 60% RH, Day 7): 99.131% | Color and appearance ([2]; 25° C., 60% RH, Day 7): White solid | Crystalline form ([2]; 25° C., 60% RH, Day 7): Not changed | Main peak purity (%) ([2]; 25° C., 60% RH, Day 7): 96.915% | Chiral purity (%) ([2]; 25° C., 60% RH, Day 14): 99.111% | Color and appearance ([2]; 25° C., 60% RH, Day 14): White solid | Crystalline form ([2]; 25° C., 60% RH, Day 14): Not changed | Main peak purity (%) ([2]; 25° C., 60% RH, Day 14): 96.831% | Chiral purity (%) ([2]; 25° C., 60% RH, Month 1): 99.225% | Chloride ion content (%) ([2]; 25° C., 60% RH, Month 1): 5.75% | Color and appearance ([2]; 25° C., 60% RH, Month 1): White solid | Crystalline form ([2]; 25° C., 60% RH, Month 1): Not changed | Main peak purity (%) ([2]; 25° C., 60% RH, Month 1): 96.906% | Chiral purity (%) ([2]; 25° C., 60% RH, Month 2): 99.332% | Chloride ion content (%) ([2]; 25° C., 60% RH, Month 2): 5.74% | Color and appearance ([2]; 25° C., 60% RH, Month 2): White solid | Crystalline form ([2]; 25° C., 60% RH, Month 2): Not changed | Main peak purity (%) ([2]; 25° C., 60% RH, Month 2): 96.883% | Chiral purity (%) ([2]; 25° C., 60% RH, Month 3): 99.239% | Color and appearance ([2]; 25° C., 60% RH, Month 3): White solid | Crystalline form ([2]; 25° C., 60% RH, Month 3): Not changed | Main peak purity (%) ([2]; 25° C., 60% RH, Month 3): 96.749% | Chiral purity (%) ([2]; 25° C., 60% RH, Month 6): 99.187% | Chloride ion content (%) ([2]; 25° C., 60% RH, Month 6): 5.85% | Color and appearance ([2]; 25° C., 60% RH, Month 6): White solid | Crystalline form ([2]; 25° C., 60% RH, Month 6): Not changed | Main peak purity (%) ([2]; 25° C., 60% RH, Month 6): 96.170% | Chiral purity (%) ([2]; 40° C., 75% RH, Day 7): 99.137% | Color and appearance ([2]; 40° C., 75% RH, Day 7): White solid | Crystalline form ([2]; 40° C., 75% RH, Day 7): Not changed | Main peak purity (%) ([2]; 40° C., 75% RH, Day 7): 96.906% | Chiral purity (%) ([2]; 40° C., 75% RH, Day 14): 99.104% | Color and appearance ([2]; 40° C., 75% RH, Day 14): White solid | Crystalline form ([2]; 40° C., 75% RH, Day 14): Not changed | Main peak purity (%) ([2]; 40° C., 75% RH, Day 14): 96.902% | Chiral purity (%) ([2]; 40° C., 75% RH, Month 1): 99.206% | Chloride ion content (%) ([2]; 40° C., 75% RH, Month 1): 5.44% | Color and appearance ([2]; 40° C., 75% RH, Month 1): White solid | Crystalline form ([2]; 40° C., 75% RH, Month 1): Not changed | Main peak purity (%) ([2]; 40° C., 75% RH, Month 1): 96.846% | Chiral purity (%) ([2]; 40° C., 75% RH, Month 2): 99.292% | Chloride ion content (%) ([2]; 40° C., 75% RH, Month 2): 5.86% | Color and appearance ([2]; 40° C., 75% RH, Month 2): White solid | Crystalline form ([2]; 40° C., 75% RH, Month 2): Not changed | Main peak purity (%) ([2]; 40° C., 75% RH, Month 2): 96.780% | Chiral purity (%) ([2]; 40° C., 75% RH, Month 3): 99.149% | Color and appearance ([2]; 40° C., 75% RH, Month 3): White solid | Crystalline form ([2]; 40° C., 75% RH, Month 3): Not changed | Main peak purity (%) ([2]; 40° C., 75% RH, Month 3): 96.664% | Chiral purity (%) ([2]; 40° C., 75% RH, Month 6): 98.972% | Chloride ion content (%) ([2]; 40° C., 75% RH, Month 6): 5.98% | Color and appearance ([2]; 40° C., 75% RH, Month 6): White solid | Crystalline form ([2]; 40° C., 75% RH, Month 6): Not changed | Main peak purity (%) ([2]; 40° C., 75% RH, Month 6): 95.990% | Chiral purity (%) ([2]; Initial, 0): 99.14% | Chloride ion content (%) ([2]; Initial, 0): 5.75% | Color and appearance ([2]; Initial, 0): White solid | Crystalline form ([2]; Initial, 0): Crystalline | Main peak purity (%) ([2]; Initial, 0): 96.925% | Stability (conclusion of long-term/accelerated study) ([2]; long term and acceleration, 6 months): good physical and chemical stability | Chiral purity (%) ([3]; 40° C., 7 days): 99.131% | Color and appearance ([3]; 40° C., 7 days): White solid | Crystalline form ([3]; 40° C., 7 days): Not changed | Main peak purity (%) ([3]; 40° C., 7 days): 96.915% | Chiral purity (%) ([3]; 40° C., 14 days): 99.115% | Color and appearance ([3]; 40° C., 14 days): White solid | Crystalline form ([3]; 40° C., 14 days): Not changed | Main peak purity (%) ([3]; 40° C., 14 days): 96.921% | Chiral purity (%) ([3]; 40° C., 30 days): 99.207% | Chloride ion content (%) ([3]; 40° C., 30 days): 5.75% | Color and appearance ([3]; 40° C., 30 days): White solid | Crystalline form ([3]; 40° C., 30 days): Not changed | Main peak purity (%) ([3]; 40° C., 30 days): 96.824% | Chiral purity (%) ([3]; 60° C., 7 days): 99.136% | Color and appearance ([3]; 60° C., 7 days): White solid | Crystalline form ([3]; 60° C., 7 days): Not changed | Main peak purity (%) ([3]; 60° C., 7 days): 96.884% | Chiral purity (%) ([3]; 60° C., 14 days): 99.106% | Color and appearance ([3]; 60° C., 14 days): White solid | Crystalline form ([3]; 60° C., 14 days): Not changed | Main peak purity (%) ([3]; 60° C., 14 days): 96.907% | Chiral purity (%) ([3]; 60° C., 30 days): 99.232% | Chloride ion content (%) ([3]; 60° C., 30 days): 5.65% | Color and appearance ([3]; 60° C., 30 days): White solid | Crystalline form ([3]; 60° C., 30 days): Not changed | Main peak purity (%) ([3]; 60° C., 30 days): 96.814% | Chiral purity (%) ([3]; 75% RH, 7 days): 99.138% | Color and appearance ([3]; 75% RH, 7 days): White solid | Crystalline form ([3]; 75% RH, 7 days): Not changed | Main peak purity (%) ([3]; 75% RH, 7 days): 96.916% | Chiral purity (%) ([3]; 75% RH, 14 days): 99.130% | Color and appearance ([3]; 75% RH, 14 days): White solid | Crystalline form ([3]; 75% RH, 14 days): Not changed | Main peak purity (%) ([3]; 75% RH, 14 days): 96.908% | Chiral purity (%) ([3]; 75% RH, 30 days): 99.220% | Chloride ion content (%) ([3]; 75% RH, 30 days): 5.68% | Color and appearance ([3]; 75% RH, 30 days): White solid | Crystalline form ([3]; 75% RH, 30 days): Not changed | Main peak purity (%) ([3]; 75% RH, 30 days): 96.903% | Chiral purity (%) ([3]; 92.5% RH, 7 days): 99.132% | Color and appearance ([3]; 92.5% RH, 7 days): White solid | Crystalline form ([3]; 92.5% RH, 7 days): Not changed | Main peak purity (%) ([3]; 92.5% RH, 7 days): 96.912% | Chiral purity (%) ([3]; 92.5% RH, 14 days): 99.111% | Color and appearance ([3]; 92.5% RH, 14 days): White solid | Crystalline form ([3]; 92.5% RH, 14 days): Not changed | Main peak purity (%) ([3]; 92.5% RH, 14 days): 96.908% | Chiral purity (%) ([3]; 92.5% RH, 30 days): 99.211% | Chloride ion content (%) ([3]; 92.5% RH, 30 days): 5.67% | Color and appearance ([3]; 92.5% RH, 30 days): White solid | Crystalline form ([3]; 92.5% RH, 30 days): Not changed | Main peak purity (%) ([3]; 92.5% RH, 30 days): 96.880% | Chiral purity (%) ([3]; 4500 Lux, 7 days): 99.137% | Color and appearance ([3]; 4500 Lux, 7 days): White solid | Crystalline form ([3]; 4500 Lux, 7 days): Not changed | Main peak purity (%) ([3]; 4500 Lux, 7 days): 96.911% | Chiral purity (%) ([3]; 4500 Lux, 14 days): 99.139% | Color and appearance ([3]; 4500 Lux, 14 days): White solid | Crystalline form ([3]; 4500 Lux, 14 days): Not changed | Main peak purity (%) ([3]; 4500 Lux, 14 days): 96.911% | Chiral purity (%) ([3]; 4500 Lux, 30 days): 99.216% | Chloride ion content (%) ([3]; 4500 Lux, 30 days): 5.71% | Color and appearance ([3]; 4500 Lux, 30 days): White solid | Crystalline form ([3]; 4500 Lux, 30 days): Not changed | Main peak purity (%) ([3]; 4500 Lux, 30 days): 96.810% | Chiral purity (%) ([3]; Initial, 0 days): 99.14% | Chloride ion content (%) ([3]; Initial, 0 days): 5.75% | Color and appearance ([3]; Initial, 0 days): White solid | Crystalline form ([3]; Initial, 0 days): Crystalline | Main peak purity (%) ([3]; Initial, 0 days): 96.925% | Stability (conclusion of influencing factor study) ([3]; illumination, 40° C. and 60° C., high humidities of 75% and 92.5%): good physical and chemical stabilities
